Test results published in patent publication US20250152660A1, “SCO-spondin-derived polypeptides for treating biological barriers dysfunction” (AXOLTIS PHARMA, priority 2021, published 2025).
Where “and” joins values, the source holds several entries; their conditions need not be identical. Identical values can stand only once. Bridges are numbered along the chain shown (N, C = ends). Where no end group is shown, it is not given here.

Experiments:
[1] = tested on: Claudin-5 at tight junction of mouse brain endothelial bEnd.3 cells; assay: Claudin-5 immunocytochemistry at tight junction in mouse brain endothelial cell cultures; type: cell-based
Protocol: To understand the effect of NX218 on the TEER and permeability of mouse brain endothelial cells in examples 3 and 4, the levels of the tight junction protein Claudin-5 were assessed using immunocytochemistry.
Mouse brain endothelial cells (bEnd.3, American Type Culture Collection) were cultured in DMEM supplemented with 10% fetal FBS and 2 mM sodium pyruvate in a 5% CO2 incubator at 37° C.
bEnd.3 cells were seeded on 1% fibronectin-coated Nunc Lab-Tek II Chamber Slides in culture medium (1×10^5 cells per well in 300 μL). Two days after seeding, cells were treated with vehicle or NX218 (1, 10 and 100 μM) for 1, 2 or 3 days. Cells were then fixed for 10 min at room temperature (RT) with 4% paraformaldehyde in phosphate buffered saline (PBS), washed twice with PBS and incubated with 5% normal goat serum and 0.05% Triton X-100 in PBS for 1 h at RT before overnight incubation with polyclonal rabbit anti-claudin-5 ( 1/100; 34-1600, Invitrogen) at 4° C. Cells were then washed three times with PBS and incubated with goat anti-rabbit Cy3 secondary antibody ( 1/500; ab6939, Abcam) for 2 h at RT and counterstained with Hoechst 33258 to visualize nuclei. The slide was removed from the chamber and mounted with Aqua Poly/Mount before visualization by confocal laser scanning/microscopy. Claudin-5 immunoreactivity (intensity) at membrane localization was finally quantified to evaluate Claudin-5 protein levels. The data are expressed as a percentage of the control condition.
A second independent experiment using the protocol described at example 5 was performed. Pooling the data from the 2 experiments (the first experiment was done in triplicate, the 2nd in duplicate, n=5) improves the statistical power and allow to reach statistical significance for a tendency observed at 72 hours timepoint.

[2] = tested on: mouse brain endothelial bEnd.3 cells; assay: Transendothelial electrical resistance (TEER) of mouse brain endothelial cell monolayer on Transwell inserts; type: cell-based; conditions: for TEER change relative to control, Average / TEER change relative to control: bEnd.3
Protocol: To determine the effect of NX218 on transendothelial electrical resistance (TEER) of mouse brain endothelial cells, cells were grown on a semi-permeable membrane inserted in culture wells in presence or absence of NX218 and the TEER was recorded using electrodes placed on each side of the membrane and a resistance meter.
Mouse brain endothelial cells (bEnd.3, American Type Culture Collection) were cultured in Dulbecco's modified Eagle's Medium (DMEM) supplemented with 10% fetal bovine serum (FBS) and 2 mM sodium pyruvate in a 5% CO2 incubator at 37° C.
bEnd.3 cells were grown on 6.5-mm-diameter, 0.4-μm-pore, polyester membrane HTS Transwell inserts (5×10^4 cells per well containing 200 μL and 800 μL of culture medium in the apical and basolateral compartments respectively). Three days after seeding, cells were treated with vehicle or NX218 (1, 10 and 100 μM) for 1, 2 or 3 days. TEER values were measured using an EVOM resistance meter fitted with “chopstick” electrodes. One electrode was placed in the apical chamber and another one in the basolateral chamber. Before measurements, chambers were replaced with fresh medium.

W-S-G-W-S-S-C-S-R-S-C-G (WSGWSSCSRSCG; disulfide 7-11 (inferred)) [NX218]
Expression of Claudin-5 at tight junction ([1]; NX218 10 μM, 72 hours, bEnd.3, pooled data of 2 experiments (Table 12), individual replicates N1-N7): 71.70 % of Control and 116.80 % of Control and 122.30 % of Control and 113.50 % of Control and 97.80 % of Control and 75.30 % of Control and 87.00 % of Control
Expression of Claudin-5 at tight junction, Average ([1]; NX218 100 μM, 24 hours, bEnd.3, average of N1-N6): 180.5 % of Control
Expression of Claudin-5 at tight junction ([1]; NX218 100 μM, 24 hours, bEnd.3, individual replicates N1-N6): 173.3 % of Control and 212.5 % of Control and 249.5 % of Control and 129 % of Control and 161.7 % of Control and 157.1 % of Control
Expression of Claudin-5 at tight junction, Average ([1]; NX218 100 μM, 48 hours, bEnd.3, average of N1-N6): 98.79 % of Control
Expression of Claudin-5 at tight junction ([1]; NX218 100 μM, 48 hours, bEnd.3, individual replicates N1-N6): 88.39 % of Control and 55.18 % of Control and 80.87 % of Control and 122.7 % of Control and 115.5 % of Control and 130.1 % of Control
Expression of Claudin-5 at tight junction, Average ([1]; NX218 100 μM, 72 hours, bEnd.3, first experiment (Table 9), average of N1-N4): 106.6 % of Control
Expression of Claudin-5 at tight junction ([1]; NX218 100 μM, 72 hours, bEnd.3, first experiment (Table 9), individual replicates N1-N4): 121.8 % of Control and 116 % of Control and 81.03 % of Control and 107.7 % of Control
Expression of Claudin-5 at tight junction, Average ([1]; NX218 100 μM, 72 hours, bEnd.3, pooled data of 2 experiments (Table 12), average of N1-N7): 119.10 % of Control
Expression of Claudin-5 at tight junction ([1]; NX218 100 μM, 72 hours, bEnd.3, pooled data of 2 experiments (Table 12), individual replicates N1-N7): 134.20 % of Control and 124.40 % of Control and 109.30 % of Control and 120.30 % of Control and 130.70 % of Control and 105.10 % of Control and 109.40 % of Control
Claudin-5 levels, result in words ([1]; NX218 at 100 μM, pooled experiments, 72 hours): Increases of Claudin-5 levels were maintained for at-least 72 hours
Claudin-5 levels, result in words ([1]; after 2 or 3 days treatment (Tables 8, 9)): levels were similar between control and NX218 conditions
Resistance (TEER), result in words ([2]; 10 and 100 μM for 1, 2 or 3 days, compared with vehicle-treated monolayer): significantly increased in a dose dependent manner
TEER ([2]; FIG. 1, 1, 10, 100 μM for 24 h, 48 h or 72 h): increases the transendothelial electrical resistance of mouse brain endothelial cell monolayer in a dose-dependent manner
TEER change relative to control, Average ([2]; NX218 1 μM, 24 hours, average of N1-N6, control = 1): 1.095
TEER change relative to control ([2]; NX218 1 μM, 24 hours, individual replicates N1-N6): 1.096 and 1.109 and 0.9761 and 1.051 and 1.197 and 1.139
TEER change relative to control, Average ([2]; NX218 1 μM, 48 hours, average of N1-N9, control = 1): 1.089
TEER change relative to control ([2]; NX218 1 μM, 48 hours, individual replicates N1-N9): 1.149 and 1.219 and 1.194 and 0.9888 and 1.006 and 1.056 and 0.9841 and 1.196 and 1.011
TEER change relative to control, Average ([2]; NX218 1 μM, 72 hours, average of N1-N9, control = 1): 0.9718
TEER change relative to control ([2]; NX218 1 μM, 72 hours, individual replicates N1-N9): 0.9966 and 1.022 and 1.007 and 1.003 and 0.9525 and 0.9474 and 0.9315 and 0.9406 and 0.9452
TEER change relative to control, Average ([2]; NX218 10 μM, 24 hours, average of N1-N6, control = 1): 1.128
TEER change relative to control ([2]; NX218 10 μM, 24 hours, individual replicates N1-N6): 1.027 and 1.068 and 1.072 and 1.178 and 1.212 (2×)
TEER change relative to control, Average ([2]; NX218 10 μM, 48 hours, average of N1-N9, control = 1): 1.203
TEER change relative to control ([2]; NX218 10 μM, 48 hours, individual replicates N1-N9): 1.219 (2×) and 1.334 and 1.016 (2×) and 1.053 and 1.28 and 1.381 and 1.312
TEER change relative to control, Average ([2]; NX218 10 μM, 72 hours, average of N1-N9, control = 1): 1.196
TEER change relative to control ([2]; NX218 10 μM, 72 hours, individual replicates N1-N9): 1.27 and 1.255 and 1.239 and 1.187 (3×) and 1.151 and 1.146 (2×)
TEER change relative to control, Average ([2]; NX218 100 μM, 24 hours, average of N1-N6, control = 1): 1.307
TEER change relative to control ([2]; NX218 100 μM, 24 hours, individual replicates N1-N6): 1.218 and 1.283 and 1.142 and 1.454 and 1.373 and 1.37
TEER change relative to control, Average ([2]; NX218 100 μM, 48 hours, average of N1-N9, control = 1): 1.461
TEER change relative to control ([2]; NX218 100 μM, 48 hours, individual replicates N1-N9): 1.547 and 1.404 and 1.498 and 1.223 and 1.284 and 1.173 and 1.725 and 1.72 and 1.571
TEER change relative to control, Average ([2]; NX218 100 μM, 72 hours, average of N1-N9, control = 1): 1.446
TEER change relative to control ([2]; NX218 100 μM, 72 hours, individual replicates N1-N9): 1.467 and 1.553 and 1.624 and 1.436 and 1.457 and 1.584 and 1.237 and 1.306 and 1.347
